Data as given in article PMC5104943, “Structural and Functional Characterization of a Ruminal β-Glycosidase Defines a Novel Subfamily of Glycoside Hydrolase Family 3 with Permuted Domain Topology” (The Journal of Biological Chemistry, 2016).

Biological target: T1, GlyA1-ΔCt (rumen metagenome, UniProt Z9J456A3C9)
T1 sequence (Z9J456A3C9 2-799): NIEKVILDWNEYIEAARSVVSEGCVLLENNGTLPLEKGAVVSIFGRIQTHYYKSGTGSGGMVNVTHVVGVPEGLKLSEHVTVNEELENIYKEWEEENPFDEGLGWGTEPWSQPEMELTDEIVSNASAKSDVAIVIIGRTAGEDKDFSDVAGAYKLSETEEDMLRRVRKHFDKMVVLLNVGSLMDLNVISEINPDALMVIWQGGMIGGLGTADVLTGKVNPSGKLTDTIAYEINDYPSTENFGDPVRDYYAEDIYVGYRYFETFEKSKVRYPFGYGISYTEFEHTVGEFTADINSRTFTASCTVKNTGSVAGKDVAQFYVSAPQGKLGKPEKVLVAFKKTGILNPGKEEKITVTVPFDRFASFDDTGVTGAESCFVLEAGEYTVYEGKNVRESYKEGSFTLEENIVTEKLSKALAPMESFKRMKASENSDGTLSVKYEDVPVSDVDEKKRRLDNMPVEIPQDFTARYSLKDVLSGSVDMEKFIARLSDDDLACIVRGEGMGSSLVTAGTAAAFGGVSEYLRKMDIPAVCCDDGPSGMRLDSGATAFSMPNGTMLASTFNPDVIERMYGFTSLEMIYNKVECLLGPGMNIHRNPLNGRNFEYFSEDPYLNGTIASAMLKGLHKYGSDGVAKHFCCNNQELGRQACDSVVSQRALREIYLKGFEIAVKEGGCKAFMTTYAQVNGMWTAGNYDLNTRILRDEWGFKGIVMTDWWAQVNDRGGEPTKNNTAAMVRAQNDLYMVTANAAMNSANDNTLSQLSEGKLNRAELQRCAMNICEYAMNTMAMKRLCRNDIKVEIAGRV
Test: X-ray crystallography, […] Å, soak […]
Assay type: binding
Details: active site subsite -1, semi-chair conformation; 2.0 M ammonium sulfate, pH 5.5

In the case of `OC[C@H]1OC(O)[C@H](O)[C@@H](O)[C@H]1O` (stereo partly drawn) [D-galactose], the “X-ray crystallography, 2.29 Å, soak 5-50 mM” value is reported as “soaking of crystals with galactose showed that this sugar displays a semi-chair conformation”.
